According to US20110045101A1, “FUNGICIDAL SUBSTITUTED AZOLES” (E.I. Du Pont De Nemours and Company, priority 2009, published 2011):
Marks after values point to notes of the source that are not given here.

Legend:
Type in all cases: in vivo
Conditions in all cases: 100 = 100% disease control, 0 = no control
[1] = system: Puccinia recondita f. sp. tritici; assay: Test I: wheat leaf rust on wheat seedlings, sprayed the day before inoculation, visual disease rating
How it was run: (§1)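 Spray suspension: acetone 3% of final volume, then 50/50 acetone/water plus 250 ppm Trem® 014. Applied to run-off on seedlings at 200 ppm (≈500 g/ha); starred entries tested at 40 ppm.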

Botrytis cinerea = assay: Test C: tomato Botrytis on tomato seedlings, sprayed the day before inoculation, visual disease rating
How it was run: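 Spray to run-off on tomato seedlings; test conc. 200 ppm (≈500 g/ha), some entries 40 ppm. Formulation: acetone 3% of final vol., then acetone/water 50:50 + 250 ppm polyhydric alcohol ester surfactant.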

Septoria nodorum = assay: Test F: wheat glume blotch on wheat seedlings, sprayed the day before inoculation, visual disease rating
How it was run: as §1

Septoria tritici = assay: Test G: wheat leaf blotch on wheat seedlings, sprayed the day before inoculation, visual disease rating
How it was run: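 Visual disease ratings taken 19 days after transfer to a 20° C growth chamber, following 48 h in saturated atmosphere at 24° C. Seedlings had been sprayed to run-off one day before spore inoculation. Dose 200 ppm, or 40 ppm where starred.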

Alternaria solani = assay: Test D: tomato early blight, sprayed the day before inoculation, visual disease rating
How it was run: as §1

[2] = system: Erysiphe graminis f. sp. tritici; assay: Test J: wheat powdery mildew on wheat seedlings, sprayed the day before inoculation, visual disease rating
How it was run: as §1

Fc1cc(F)c(-n2c(Cl)nc(Br)c2-c2ccc(Cl)cc2)c(F)c1 [compound 233]
Test I disease control rating ([1]; 40 ppm (marked *)): 41* %
Test C disease control rating (Botrytis cinerea; 40 ppm (marked *)): 96* %
Test F disease control rating (Septoria nodorum; 40 ppm (marked *)): 0* %
Test G disease control rating (Septoria tritici; 40 ppm (marked *)): 95* %
Test D disease control rating (Alternaria solani; 40 ppm (marked *)): 88* %
Test J disease control rating ([2]; 40 ppm (marked *)): 94* %

Fc1ccc(F)c(-c2c(Cl)nc(Cl)n2-c2ccc(Cl)c(Cl)c2)c1F [compound 234]
Test I disease control rating ([1]; 200 ppm): 55%
Test C disease control rating (Botrytis cinerea; 200 ppm): 95%
Test F disease control rating (Septoria nodorum; 200 ppm): 0%
Test G disease control rating (Septoria tritici; 200 ppm): 98%
Test D disease control rating (Alternaria solani; 200 ppm): 99%
Test J disease control rating ([2]; 200 ppm): 98%

CSc1ccc(F)c(-c2c(Cl)nc(C)n2-c2ccc(Cl)cc2)c1F [compound 235]
Test I disease control rating ([1]; 200 ppm): 97%
Test C disease control rating (Botrytis cinerea; 200 ppm): 99%
Test F disease control rating (Septoria nodorum; 200 ppm): 92%
Test G disease control rating (Septoria tritici; 200 ppm): 99%
Test D disease control rating (Alternaria solani; 200 ppm): 99%
Test J disease control rating ([2]; 200 ppm): 99%

Cc1nc(Cl)c(-c2c(F)cccc2F)n1-c1cccc(Cl)c1 [compound 236]
Test I disease control rating ([1]; 200 ppm): 100%
Test C disease control rating (Botrytis cinerea; 200 ppm): 100%
Test F disease control rating (Septoria nodorum; 200 ppm): 99%
Test G disease control rating (Septoria tritici; 200 ppm): 96%
Test D disease control rating (Alternaria solani; 200 ppm): 100%
Test J disease control rating ([2]; 200 ppm): 100%

Cc1nc(Cl)c(-c2c(F)ccc(F)c2Cl)n1-c1ccc(Cl)c(F)c1 [compound 237]
Test I disease control rating ([1]; 200 ppm): 100%
Test C disease control rating (Botrytis cinerea; 200 ppm): 100%
Test F disease control rating (Septoria nodorum; 200 ppm): 100%
Test G disease control rating (Septoria tritici; 200 ppm): 98%
Test D disease control rating (Alternaria solani; 200 ppm): 100%
Test J disease control rating ([2]; 200 ppm): 100%

Cc1ccc(-n2c(C)nc(Cl)c2-c2c(F)ccc(F)c2F)cc1C [compound 238]
Test I disease control rating ([1]; 200 ppm): 96%
Test C disease control rating (Botrytis cinerea; 200 ppm): 99%
Test F disease control rating (Septoria nodorum; 200 ppm): 0%
Test G disease control rating (Septoria tritici; 200 ppm): 93%
Test D disease control rating (Alternaria solani; 200 ppm): 99%
Test J disease control rating ([2]; 200 ppm): 100%

COc1cc(F)c(-c2c(Cl)nc(Cl)n2-c2ccc(Cl)cc2)c(F)c1 [compound 239]
Test I disease control rating ([1]; 200 ppm): 99%
Test C disease control rating (Botrytis cinerea; 200 ppm): 100%
Test F disease control rating (Septoria nodorum; 200 ppm): 100%
Test G disease control rating (Septoria tritici; 200 ppm): 96%
Test D disease control rating (Alternaria solani; 200 ppm): 100%
Test J disease control rating ([2]; 200 ppm): 100%

COc1cc(F)c(-c2c(Cl)nc(Cl)n2-c2ccc(Cl)c(F)c2)c(F)c1 [compound 240]
Test I disease control rating ([1]; 200 ppm): 100%
Test C disease control rating (Botrytis cinerea; 200 ppm): 100%
Test F disease control rating (Septoria nodorum; 200 ppm): 100%
Test G disease control rating (Septoria tritici; 200 ppm): 97%
Test D disease control rating (Alternaria solani; 200 ppm): 100%
Test J disease control rating ([2]; 200 ppm): 100%

COc1cc(F)c(-c2c(Cl)nc(I)n2-c2ccc(Cl)c(F)c2)c(F)c1 [compound 241]
Test I disease control rating ([1]; 200 ppm): 96%
Test C disease control rating (Botrytis cinerea; 200 ppm): 100%
Test F disease control rating (Septoria nodorum; 200 ppm): 100%
Test G disease control rating (Septoria tritici; 200 ppm): 96%
Test D disease control rating (Alternaria solani; 200 ppm): 100%
Test J disease control rating ([2]; 200 ppm): 93%

COc1cc(F)c(-n2c(Br)nc(Br)c2-c2ccc(Cl)cc2)c(F)c1 [compound 242]
Test I disease control rating ([1]; 40 ppm (marked *)): 89* %
Test C disease control rating (Botrytis cinerea; 40 ppm (marked *)): 99* %
Test F disease control rating (Septoria nodorum; 40 ppm (marked *)): 51* %
Test G disease control rating (Septoria tritici; 40 ppm (marked *)): 95* %
Test D disease control rating (Alternaria solani; 40 ppm (marked *)): 95* %
Test J disease control rating ([2]; 40 ppm (marked *)): 92* %

Cc1nc(Cl)c(-c2ccc(F)cc2Cl)n1-c1ccc(Cl)c(F)c1 [compound 243]
Test I disease control rating ([1]; 200 ppm): 100%
Test C disease control rating (Botrytis cinerea; 200 ppm): 99%
Test F disease control rating (Septoria nodorum; 200 ppm): 98%
Test G disease control rating (Septoria tritici; 200 ppm): 99%
Test D disease control rating (Alternaria solani; 200 ppm): 100%
Test J disease control rating ([2]; 200 ppm): 98%

Cc1nc(Cl)c(-c2c(F)cccc2Cl)n1-c1ccc(Cl)c(F)c1 [compound 244]
Test I disease control rating ([1]; 200 ppm): 99%
Test C disease control rating (Botrytis cinerea; 200 ppm): 100%
Test F disease control rating (Septoria nodorum; 200 ppm): 99%
Test G disease control rating (Septoria tritici; 200 ppm): 96%
Test D disease control rating (Alternaria solani; 200 ppm): 100%
Test J disease control rating ([2]; 200 ppm): 100%

COc1cc(F)c(-c2c(Cl)nc(I)n2-c2ccc(Cl)cc2)c(F)c1 [compound 245]
Test I disease control rating ([1]; 200 ppm): 95%
Test C disease control rating (Botrytis cinerea; 200 ppm): 100%
Test F disease control rating (Septoria nodorum; 200 ppm): 100%
Test G disease control rating (Septoria tritici; 200 ppm): 97%
Test D disease control rating (Alternaria solani; 200 ppm): 99%
Test J disease control rating ([2]; 200 ppm): 99%

Cc1nc(Cl)c(-c2c(F)cccc2F)n1-c1ccc(Cl)c(F)c1 [compound 247]
Test I disease control rating ([1]; 200 ppm): 100%
Test C disease control rating (Botrytis cinerea; 200 ppm): 100%
Test F disease control rating (Septoria nodorum; 200 ppm): 100%
Test G disease control rating (Septoria tritici; 200 ppm): 97%
Test D disease control rating (Alternaria solani; 200 ppm): 100%
Test J disease control rating ([2]; 200 ppm): 100%

COc1cc(F)c(-n2c(C)nc(C)c2-c2ccc(Cl)cc2)c(F)c1 [compound 249]
Test I disease control rating ([1]; 40 ppm (marked *)): 74* %
Test C disease control rating (Botrytis cinerea; 40 ppm (marked *)): 100* %
Test F disease control rating (Septoria nodorum; 40 ppm (marked *)): 73* %
Test G disease control rating (Septoria tritici; 40 ppm (marked *)): 93* %
Test D disease control rating (Alternaria solani; 40 ppm (marked *)): 99* %
Test J disease control rating ([2]; 40 ppm (marked *)): 81* %

COc1cc(F)c(-c2c(C)ncn2-c2ccccn2)c(F)c1 [compound 250]
Test I disease control rating ([1]; 200 ppm): 99%
Test C disease control rating (Botrytis cinerea; 200 ppm): 99%
Test F disease control rating (Septoria nodorum; 200 ppm): 0%
Test G disease control rating (Septoria tritici; 200 ppm): 83%
Test D disease control rating (Alternaria solani; 200 ppm): 100%
Test J disease control rating ([2]; 200 ppm): 94%

Cc1ncn(-c2ccc(Cl)c(F)c2)c1-c1ccccn1 [compound 251]
Test I disease control rating ([1]; 200 ppm): 9%
Test C disease control rating (Botrytis cinerea; 200 ppm): 99%
Test F disease control rating (Septoria nodorum; 200 ppm): 0%
Test G disease control rating (Septoria tritici; 200 ppm): 81%
Test D disease control rating (Alternaria solani; 200 ppm): 0%
Test J disease control rating ([2]; 200 ppm): 0%

Cc1ncn(-c2ccc(Cl)c(F)c2)c1-c1cccnc1 [compound 252]
Test I disease control rating ([1]; 200 ppm): 0%
Test C disease control rating (Botrytis cinerea; 200 ppm): 15%
Test F disease control rating (Septoria nodorum; 200 ppm): 0%
Test G disease control rating (Septoria tritici; 200 ppm): 13%
Test D disease control rating (Alternaria solani; 200 ppm): 0%
Test J disease control rating ([2]; 200 ppm): 0%

Cc1ncn(-c2ccc(Cl)c(F)c2)c1-c1ccncc1 [compound 253]
Test I disease control rating ([1]; 200 ppm): 74%
Test C disease control rating (Botrytis cinerea; 200 ppm): 94%
Test F disease control rating (Septoria nodorum; 200 ppm): 0%
Test G disease control rating (Septoria tritici; 200 ppm): 91%
Test D disease control rating (Alternaria solani; 200 ppm): 0%
Test J disease control rating ([2]; 200 ppm): 0%

COc1cc(F)c(-c2c(C)ncn2-c2ccc(Cl)nc2)c(F)c1 [compound 254]
Test I disease control rating ([1]; 200 ppm): 99%
Test C disease control rating (Botrytis cinerea; 200 ppm): 100%
Test F disease control rating (Septoria nodorum; 200 ppm): 0%
Test G disease control rating (Septoria tritici; 200 ppm): 95%
Test D disease control rating (Alternaria solani; 200 ppm): 100%
Test J disease control rating ([2]; 200 ppm): 98%

Cc1ncn(-c2ccc(Cl)c(F)c2)c1-c1c(Cl)cncc1Cl [compound 255]
Test I disease control rating ([1]; 200 ppm): 86%
Test C disease control rating (Botrytis cinerea; 200 ppm): 99%
Test F disease control rating (Septoria nodorum; 200 ppm): 0%
Test G disease control rating (Septoria tritici; 200 ppm): 95%
Test D disease control rating (Alternaria solani; 200 ppm): 0%
Test J disease control rating ([2]; 200 ppm): 91%

COc1cc(F)c(-c2c(Cl)nc(Cl)n2-c2cccc(F)c2)c(F)c1 [compound 257]
Test I disease control rating ([1]; 200 ppm): 100%
Test C disease control rating (Botrytis cinerea; 200 ppm): 100%
Test F disease control rating (Septoria nodorum; 200 ppm): 99%
Test G disease control rating (Septoria tritici; 200 ppm): 95%
Test D disease control rating (Alternaria solani; 200 ppm): 100%
Test J disease control rating ([2]; 200 ppm): 100%

Cc1nc(Cl)c(Cc2c(F)cccc2F)n1-c1ccc(Cl)cc1 [compound 258]
Test I disease control rating ([1]; 200 ppm): 97%
Test C disease control rating (Botrytis cinerea; 200 ppm): 99%
Test F disease control rating (Septoria nodorum; 200 ppm): 42%
Test G disease control rating (Septoria tritici; 200 ppm): 87%
Test D disease control rating (Alternaria solani; 200 ppm): 0%
Test J disease control rating ([2]; 200 ppm): 78%

Fc1cc(-n2c(Cl)nc(CCl)c2-c2ccccc2F)ccc1Cl [compound 259]
Test I disease control rating ([1]; 200 ppm): 82%
Test C disease control rating (Botrytis cinerea; 200 ppm): 99%
Test F disease control rating (Septoria nodorum; 200 ppm): 0%
Test G disease control rating (Septoria tritici; 200 ppm): 63%
Test D disease control rating (Alternaria solani; 200 ppm): 16%
Test J disease control rating ([2]; 200 ppm): 93%

Cc1nc(Cl)n(-c2ccc(Cl)c(F)c2)c1-c1ccccc1F [compound 260]
Test I disease control rating ([1]; 200 ppm): 94%
Test C disease control rating (Botrytis cinerea; 200 ppm): 100%
Test F disease control rating (Septoria nodorum; 200 ppm): 0%
Test G disease control rating (Septoria tritici; 200 ppm): 92%
Test D disease control rating (Alternaria solani; 200 ppm): 95%
Test J disease control rating ([2]; 200 ppm): 99%

COc1cc(F)c(-c2c(C)nc(Cl)n2-c2ccc(Cl)c(F)c2)c(F)c1 [compound 261]
Test I disease control rating ([1]; 200 ppm): 100%
Test C disease control rating (Botrytis cinerea; 200 ppm): 99%
Test F disease control rating (Septoria nodorum; 200 ppm): 100%
Test G disease control rating (Septoria tritici; 200 ppm): 95%
Test D disease control rating (Alternaria solani; 200 ppm): 100%
Test J disease control rating ([2]; 200 ppm): 100%

Cc1nc(Cl)n(-c2ccc(Cl)c(F)c2)c1-c1c(Cl)cncc1Cl [compound 262]
Test I disease control rating ([1]; 200 ppm): 100%
Test C disease control rating (Botrytis cinerea; 200 ppm): 99%
Test F disease control rating (Septoria nodorum; 200 ppm): 69%
Test G disease control rating (Septoria tritici; 200 ppm): 96%
Test D disease control rating (Alternaria solani; 200 ppm): 99%
Test J disease control rating ([2]; 200 ppm): 100%

COc1cc(F)c(-c2c(C)nc(Cl)n2-c2ccc(Cl)nc2)c(F)c1 [compound 263]
Test I disease control rating ([1]; 200 ppm): 100%
Test C disease control rating (Botrytis cinerea; 200 ppm): 99%
Test F disease control rating (Septoria nodorum; 200 ppm): 100%
Test G disease control rating (Septoria tritici; 200 ppm): 95%
Test D disease control rating (Alternaria solani; 200 ppm): 100%
Test J disease control rating ([2]; 200 ppm): 100%

Cc1nc(Cl)n(-c2ccc(Cl)c(F)c2)c1-c1ccccn1 [compound 264]
Test I disease control rating ([1]; 200 ppm): 98%
Test C disease control rating (Botrytis cinerea; 200 ppm): 99%
Test F disease control rating (Septoria nodorum; 200 ppm): 0%
Test G disease control rating (Septoria tritici; 200 ppm): 95%
Test D disease control rating (Alternaria solani; 200 ppm): 88%
Test J disease control rating ([2]; 200 ppm): 99%
